“And” between values parts separate entries of the source, which are not always exact repeats. Identical values can stand only once.

This assay deals with HA. The assay is classed as binding, IAV H1N1 strain A/Puerto Rico/8/1934 (PR8).
Turning to ARRVNHH, the HA x ratio amounted to 0.61.

For DRRVNHH, the HA x ratio is reported as 0.65.

Turning to ERRVNHH, the HA x ratio worked out at 0.60.

Turning to FRRVNHH, the HA x ratio was 0.71.

In the case of GRRVNHH, the HA x ratio was determined as 0.37.

Take HRRVNHH: the HA x ratio came out at 0.38.

As for IRRVNHH, the HA x ratio was determined as 0.41.

As to KRRVNHH, the HA x ratio was determined as 0.87.

With LRRVNHH, the HA x ratio amounted to 0.80.

In the case of MRRVNHH, the HA x ratio is 0.73.

For the substance NRRVNHH, the HA x ratio is 0.43.

With PRRVNHH, the HA x ratio came out at 0.56.

Turning to QRRVNHH, the HA x ratio was 0.78.

Regarding RARDNHH, the HA x ratio is 0.61 and 0.73 and 0.72.

For the substance RARVNHH, the HA x ratio came to 1.61.

Consider RDRVNHH, for which the HA x ratio was found to be 0.80.

Take RERVNHH: the HA x ratio was 0.54.

As to RFPVNHH, the HA x ratio is 1.20 and 1.08 and 1.00.

On to RFRVNHH, for which the HA x ratio amounted to 0.56.

With RGPVNHH, the HA x ratio is 1.56 and 1.10 and 0.92.

Regarding RGRDNHH, the HA x ratio was 0.78 and 1.32 and 1.08.

As to RGRVNHH, the HA x ratio was 1.41.

As to RHPVNHH, the HA x ratio was 0.90 and 1.23 and 0.70.

As to RHRDNHH, the HA x ratio was 1.05 and 1.04 and 0.77.

Turning to RHRVNHH, the HA x ratio worked out at 1.57.

Take RIPVNHH: the HA x ratio is 1.46 and 1.18 and 0.86.

Consider RIRVNHH, for which the HA x ratio is 1.38.

On to RKPVNHH, for which the HA x ratio is 1.27 and 1.55 and 1.97.

As for RKRDNHH, the HA x ratio was 1.05 and 0.70.

On to RKRVNHH, for which the HA x ratio came out at 1.35.

Consider RLPVNHH, for which the HA x ratio was 0.45 and 0.68 and 0.79.

As for RLRVNHH, the HA x ratio was determined as 1.05.

Consider RMRDNHH, for which the HA x ratio was 0.77 and 0.40 and 0.59.

RMRVNHH: the HA x ratio came to 0.90.

For RNPVNHH, the HA x ratio was 1.21 and 1.04 and 0.76.

For the substance RNRVNHH, the HA x ratio is 1.11.

Regarding RPPVNHH, the HA x ratio is 0.98 and 0.96 and 0.50.

On to RPRVNHH, for which the HA x ratio was determined as 0.60.

For RQPVNHH, the HA x ratio is 0.63 and 0.91 and 1.08.

For the substance RQRDNHH, the HA x ratio is 1.02 and 1.69 and 1.17.

With RQRVNGG, the HA x ratio is listed as 0.75.

In the case of RRADNHH, the HA x ratio was 0.49 and 0.70 and 0.62.

RRAVNHH: the HA x ratio was 0.96.

RRDVNHH: the HA x ratio worked out at 0.60.

With RREVNHH, the HA x ratio is on record as 3.11.

RRFDNHH: the HA x ratio was 0.56 and 0.46 and 0.45.

RRFVNHH: the HA x ratio is 2.86.

For the substance RRGVNHH, the HA x ratio is recorded as 2.40.

As for RRHDNHH, the HA x ratio is 1.24 and 1.02 and 1.09.

RRHVNHH: the HA x ratio is 1.09.

Take RRIVNHH: the HA x ratio came to 1.20.

In the case of RRKVNHH, the HA x ratio is on record as 0.82.

As for RRLVNHH, the HA x ratio stood at 0.69.

Regarding RRMDNHH, the HA x ratio was 0.63 and 1.00 and 0.79.

As to RRMVNHH, the HA x ratio is 0.79.

Regarding RRNDNHH, the HA x ratio was 0.51 and 0.36 and 0.50.

Turning to RRNVNHH, the HA x ratio was 0.61.

RRPKNHH: the HA x ratio was 0.76 and 0.64 and 0.51.

Regarding RRPLNHH, the HA x ratio was 0.82 and 0.76 and 0.42.

Regarding RRPNNHH, the HA x ratio was 1.47 and 1.90 and 1.08.

Turning to RRPRNHH, the HA x ratio is 0.65 and 0.78 and 0.39.

Turning to RRPVNHE, the HA x ratio is 1.47 and 1.30 and 1.11.

Take RRPVNHF: the HA x ratio is 1.54 and 1.38 and 2.67.

As for RRPVNHK, the HA x ratio was 1.14 and 0.99 and 0.62.

RRPVNHQ: the HA x ratio was 1.37 and 1.26 and 0.94.

As for RRPVNHS, the HA x ratio is 1.08 and 1.99 and 1.46.

As for RRPVNHT, the HA x ratio was 0.76 and 1.24 and 0.77.

RRPVNHY: the HA x ratio is 1.43 and 0.76 and 0.77.

For RRQVNHH, the HA x ratio was determined as 2.55.

Turning to RRRANHH, the HA x ratio is 0.36.

For the substance RRRDNHA, the HA x ratio is 1.07 and 0.73 and 0.58.

Regarding RRRDNHD, the HA x ratio is 0.55 and 0.60 and 0.30.

On to RRRDNHL, for which the HA x ratio was 0.92 and 0.83 and 0.51.

Turning to RRRDNHP, the HA x ratio was 0.54 and 0.61 and 0.45.

With RRRDNHQ, the HA x ratio is 0.36 and 0.45 and 0.67.

As for RRRDNHV, the HA x ratio was 1.05 and 1.22 and 1.16.

In the case of RRRENHH, the HA x ratio came out at 0.59.

Take RRRFNHH: the HA x ratio was 0.78.

As to RRRGNHH, the HA x ratio turned out to be 0.46.

In the case of RRRHNHH, the HA x ratio was found to be 0.30.

Consider RRRINHH, for which the HA x ratio was 0.39.

Regarding RRRKNHH, the HA x ratio was determined as 1.55.

Take RRRLNHH: the HA x ratio came out at 0.42.

Turning to RRRMNHH, the HA x ratio is given as 2.13.

For RRRNNHH, the HA x ratio amounted to 2.20.

With RRRPNHH, the HA x ratio is 0.36.

With RRRQNHH, the HA x ratio amounted to 1.81.

Take RRRRNHH: the HA x ratio is recorded as 1.09.

Regarding RRRSNHH, the HA x ratio worked out at 0.40.

In the case of RRRTNHH, the HA x ratio was determined as 0.28.

In the case of RRRVAHH, the HA x ratio came out at 1.62.

With RRRVDHH, the HA x ratio was determined as 1.09.

For the substance RRRVEHH, the HA x ratio was found to be 0.64.

For the substance RRRVFHH, the HA x ratio amounted to 0.71.

For the substance RRRVGHH, the HA x ratio turned out to be 0.56.

For the substance RRRVHHH, the HA x ratio is 0.35.

Consider RRRVIHH, for which the HA x ratio came out at 0.63.

RRRVKHH: the HA x ratio worked out at 1.27.

For the substance RRRVLHH, the HA x ratio is 1.21.

With RRRVMHH, the HA x ratio was 0.90.

As for RRRVNAH, the HA x ratio is 0.91.

On to RRRVNDH, for which the HA x ratio turned out to be 0.72.

Turning to RRRVNEH, the HA x ratio came out at 0.49.

Take RRRVNFH: the HA x ratio is listed as 0.93.

For the substance RRRVNGH, the HA x ratio worked out at 0.70.

Turning to RRRVNHA, the HA x ratio was 0.56.

With RRRVNHD, the HA x ratio is recorded as 0.46.

As for RRRVNHE, the HA x ratio is on record as 1.77.

As to RRRVNHF, the HA x ratio is reported as 0.66.

For the substance RRRVNHG, the HA x ratio stood at 1.43.

For RRRVNHI, the HA x ratio is on record as 0.72.

On to RRRVNHK, for which the HA x ratio is recorded as 0.59.

As to RRRVNHL, the HA x ratio was 0.48.

Regarding RRRVNHM, the HA x ratio is listed as 0.42.

RRRVNHN: the HA x ratio is 0.66.

In the case of RRRVNHP, the HA x ratio was 1.63.

On to RRRVNHQ, for which the HA x ratio was found to be 0.72.

On to RRRVNHR, for which the HA x ratio is given as 1.48.

Consider RRRVNHS, for which the HA x ratio was 1.03.

As for RRRVNHT, the HA x ratio was 1.23.

As to RRRVNHV, the HA x ratio is given as 0.49.

With RRRVNHW, the HA x ratio came out at 0.44.

Consider RRRVNHY, for which the HA x ratio amounted to 0.36.

On to RRRVNIH, for which the HA x ratio is given as 0.95.

On to RRRVNKH, for which the HA x ratio stood at 1.27.

As for RRRVNLH, the HA x ratio was found to be 1.09.

RRRVNMH: the HA x ratio is 1.22.

Take RRRVNNH: the HA x ratio is given as 1.00.

As for RRRVNPH, the HA x ratio came to 0.89.

Turning to RRRVNQH, the HA x ratio worked out at 0.65.

Consider RRRVNRH, for which the HA x ratio came to 0.73.

Take RRRVNSH: the HA x ratio was 0.86.

As for RRRVNTH, the HA x ratio was 0.88.

As to RRRVNVH, the HA x ratio worked out at 0.80.

In the case of RRRVNWH, the HA x ratio is 0.80.

As to RRRVNYH, the HA x ratio amounted to 1.55.

Take RRRVPHH: the HA x ratio turned out to be 0.90.

Consider RRRVQHH, for which the HA x ratio was 0.71.

For the substance RRRVRHH, the HA x ratio is recorded as 1.24.

Take RRRVSHH: the HA x ratio is 0.61.

As to RRRVTHH, the HA x ratio was 0.46.

For the substance RRRVVHH, the HA x ratio came to 1.27.

On to RRRVWHH, for which the HA x ratio is reported as 0.57.

Take RRRVYHH: the HA x ratio is on record as 1.10.

In the case of RRRWNHH, the HA x ratio worked out at 0.30.

For the substance RRRYNHH, the HA x ratio is listed as 0.39.

On to RRSFNHH, for which the HA x ratio was 0.82 and 0.91 and 0.46.

Regarding RRSKNHH, the HA x ratio was 1.10 and 0.79 and 1.25.

RRSMNHH: the HA x ratio was 0.75 and 0.55.

For the substance RRSNNHH, the HA x ratio was 0.73 and 0.74 and 0.37.

For the substance RRSPNHH, the HA x ratio was 0.39 and 0.47 and 0.43.

For RRSRNHH, the HA x ratio is 1.02 and 0.86 and 0.77.

On to RRTVNHH, for which the HA x ratio worked out at 1.15.

Turning to RRVVNHH, the HA x ratio worked out at 0.57.

Consider RRWVNHH, for which the HA x ratio is 0.66.

Regarding RRYDNHH, the HA x ratio was 1.25 and 0.92 and 1.56.

Regarding RRYVNHH, the HA x ratio amounted to 0.69.

Consider RSPVNHH, for which the HA x ratio was 1.07 and 0.89 and 0.72.

Turning to RSRVNHH, the HA x ratio stood at 2.42.

Consider RTRDNHH, for which the HA x ratio was 1.38 and 1.50.

With RTRVNHH, the HA x ratio is listed as 2.79.

For the substance RVPVNHH, the HA x ratio was 1.05 and 1.07 and 0.75.

RVRVNHH: the HA x ratio came to 0.68.

Regarding RWRDNHH, the HA x ratio was 1.15 and 1.05 and 0.76.

For the substance RWRVNHH, the HA x ratio is given as 1.99.

As to RYRVNHH, the HA x ratio was found to be 1.46.

As to SRRVNHH, the HA x ratio was determined as 0.49.

In the case of TRRVNHH, the HA x ratio came to 0.39.

Turning to VRRVNHH, the HA x ratio amounted to 0.98.

On to WRRVNHH, for which the HA x ratio came to 0.56.

As to YRRVNHH, the HA x ratio turned out to be 1.34.

(Values after PMC6952414 (Nature Communications, 2020).)
